Series [1] deals with esterases. The conditions noted are these: cited from earlier work.
In series [2] the test system is E. faecium. Description: MIC on E. faecium enterococcal strains (microplate dilution, CLSI). It counts as cell-based, Enterococcus faecium. From the text:
(§1) The strains tested are reference strains and cultures that are multi-antibiotic resistant; these are clinical strains that were isolated at the “Hospice de Lyon” and are as follows: • Staphylococcus S. aureus: ATCC® 29213™, ATCC 25923, • Methicillin-resistant S. aureus staphylococcus strains (Lac-Deleo USA 300), (MU 3), (HT 2004-0012), LY 199-0053, (HT 2002-0417), (HT 2006-1004), • Daptomycin-resistant S. aureus staphylococcus strains (ST 2015-0188) (ST 2014 1288), (ST 2015-0989). • Enterococci: E. faecalis (ATCC® 29212™, clinical strains of E. faecalis enterococcus, isolated from urine: strain 015206179901 (hereinafter 9901), strain 015205261801 (hereinafter 1801) • Enterococci: E. faecium (CIP 103510), clinical strains of E. faecium enterococcus: Van A 0151850763 (hereinafter Van A); strain 015 205731401 (hereinafter 1401), • Listeria: L. monocytogenes (CIP 103575), clinical strains isolated from blood culture (015189074801, LM1), strain isolated from cerebrospinal fluid (015170199001, LM2), clinical strain isolated from blood culture (015181840701, LM3).
(§2) The cultures studied, freshly isolated (after incubation on blood agar at 37° C. for 18 h), are taken up in sterile water (10 ml) until a 0.5 McFarland (Mc), i.e. 1 to 2×10^8 CFU (bacteria)/cm^3, suspension is obtained. The bacterial suspension was then diluted in order to obtain a final concentration of 1×10^6 CFU/cm^3.
(§3) Each well contains a final identical amount of Mueller-Hinton medium (rich medium enabling bacterial culture) and of bacteria of 0.5×10^6 CFU/cm^3.
(§4) The compounds of interest to be tested are dissolved in ethanol or DMSO at 25 mg/ml before being diluted, with the dilution being doubled each time, to different concentrations. […]
(§5) The minimum inhibitory […] (MIC) are determined on Gram-positive bacterial strains according to the recommendations of the “Clinical Laboratory Standards Institute” (Clinical-Laboratory-Standards-Institute, 6th ed. Approved standard M100-S17. CLSI, Wayne, Pa., 2007). […]

Series [3] concerns S. aureus. Description: MIC on S. aureus staphylococcal strains (microplate dilution, CLSI). It is filed as cell-based, Staphylococcus aureus.
Source text: as §1, §2, §3
The compounds of interest to be tested are dissolved in ethanol or DMSO at 25 mg/ml before being diluted, with the dilution being doubled each time, to different concentrations. On the multi-well plate, a first series was provided comprising the culture medium without the compound of interest to be tested. This corresponds to the growth control (control wells). These controls serve as a reference for comparing bacterial growth with those of the following wells comprising different concentrations of the compound of interest to be tested. The second series of wells comprises the parent solution of the compound of interest to be tested for a concentration in the well of 256 mg/l (7 mM). Each series of wells was diluted, with the dilution being doubled each time, until the last series for a final concentration of 0.25 mg/l (0.0007 mM). Each concentration is duplicated within the same plate. The plate is incubated for 18 h at 37° C. […] In the case of antibacterial activity, bacterial growth is inhibited which is reflected by the absence of appearance of cloudiness or bacterial pellet.
The minimum inhibitory […] (MIC) are determined on Gram-positive bacterial strains according to the recommendations of the “Clinical Laboratory Standards Institute” (Clinical-Laboratory-Standards-Institute, 6th ed. Approved standard M100-S17. CLSI, Wayne, Pa., 2007).
The cultures studied, freshly isolated (after incubation on blood agar at 37° C. for 18 h), are taken up in sterile water (10 ml) until a 0.5 McFarland (Mc), i.e. to 10^8 CFU (bacteria)/cm^3, suspension is obtained. The bacterial suspension was then diluted in order to obtain a final concentration of 10^6 CFU/cm^3.

Series [4] relates to E. faecalis. In words: MIC on E. faecalis enterococcal strains (microplate dilution, CLSI). It is filed as cell-based, Enterococcus faecalis.
Source text: as §1, §2, §3, §4, §5

Series [5] has as its system L. monocytogenes. In words: MIC on strains of Listeria (microplate dilution, CLSI). It is filed as cell-based, Listeria monocytogenes.
Source text: as §1, §2, §3
The compounds of interest to be tested are dissolved in ethanol or DMSO at 25 mg/ml before being diluted, with the dilution being doubled each time, to different concentrations. On the multi-well plate, a first series was provided comprising the culture medium without the compound of interest to be tested. This corresponds to the growth control (control wells). These controls serve as a reference for comparing bacterial growth with those of the following wells comprising different concentrations of the compound of interest to be tested. The second series of wells comprises the parent solution of the compound of interest to be tested for a concentration in the well of 256 mg/l (7 mM). Each series of wells was diluted, with the dilution being doubled each time, until the last series for a final concentration of 0.25 mg/l (0.0007 mM). Each concentration is duplicated within the same plate. The plate is incubated for 18 h at 37° C. […]
as §5

The test system of series [6] is L. monocytogenes. The conditions noted are these: literature, in words; cited from earlier work.
Series [7] concerns S. aureus. As to conditions: literature, in words; cited from earlier work.

These results are taken from patent US20200281956A1, “ANTIBACTERIAL COMPOSITION CONTAINING A DEOXYHEXOSE ALKYL MONOACETAL OR MONOETHER” (TEREOS STARCH & SWEETENERS BELGIUM, priority 2015, published 2020).

Compound `CCCCCCCCCCCC1OCC2O[C@H](OC)C(O)C(O)[C@H]2O1` (stereo partly drawn) [compound 1d, Methyl 4,6-O-dodecylidene-α-D-galactopyranoside] displayed a melting point of 115 °C.

Take `CCCCCCCCCCCC(=O)OCC(O)CO` (stereo not shown) [monolaurin]: the “degradation / half-life (ester function sensitive to esterases)” value in series [1] was “quickly degraded”.

Turning to “3-O-Dodecyl-1,4-D-sorbitan, 5-O-dodecyl-1,4-D-sorbitan and 6-O-dodecyl-1,4-D-sorbitan [reference compound]”, the “Minimum inhibitory concentration (MIC)” value in series [2] (E. faecium CIP 103510) was found to be 16 µg/mL; in series [2] (E. faecium clinical strain 1401), 8 µg/mL; in series [2] (E. faecium clinical strain Van A) it was 16 µg/mL; in series [3] (S. aureus ATCC 25923, reference strain) it was 32 µg/mL; in series [3] (S. aureus ATCC 29213, reference strain), 32 µg/mL; in series [3] (daptomycin-resistant S. aureus ST 2014 1288), 64 µg/mL. For the same compound, the “Minimum inhibitory concentration (MIC)” value in series [3] (daptomycin-resistant S. aureus ST 2015-0188) came to 64 µg/mL; in series [3] (daptomycin-resistant S. aureus ST 2015-0989), 256 µg/mL; in series [3] (methicillin-resistant S. aureus HT 2002-0417), 32 µg/mL; in series [3] (methicillin-resistant S. aureus HT 2004-0012), 32 µg/mL; in series [3] (methicillin-resistant S. aureus HT 2006-1004), 32 µg/mL; in series [3] (methicillin-resistant S. aureus LY 199-0053) it was 32 µg/mL. The “Minimum inhibitory concentration (MIC)” value was found to be 32 µg/mL in series [3] (methicillin-resistant S. aureus Lac-Deleo USA 300); 64 µg/mL in series [3] (methicillin-resistant S. aureus MU 3); 8 µg/mL in series [4] (E. faecalis ATCC 29212); 8 µg/mL in series [4] (E. faecalis clinical strain 1801 (urine)); 16 µg/mL in series [4] (E. faecalis clinical strain 9901 (urine)); 32 µg/mL in series [5] (L. monocytogenes CIP 103575). The “Minimum inhibitory concentration (MIC)” value in series [5] (L. monocytogenes clinical strain LM1 (blood culture)) amounted to 16 µg/mL; in series [5] (L. monocytogenes clinical strain LM2 (cerebrospinal fluid)), 32 µg/mL; in series [5] (L. monocytogenes clinical strain LM3 (blood culture)), 32 µg/mL.

For Dodecanoyl sucrose, the “activity against L. monocytogenes” value in series [6] is “particularly active”. For the same compound, the “inhibition of the growth of S. aureus” value in series [7] is on record as “weakly inhibiting the growth”.
